Laboratory results: PubChem BioAssay AID2060512 (Molecular Pharmacology Branch, DTP, NCI, 2025)

Tested on: 186277-243-T-J2-PDC complex spheroid viability
Test: Anticancer human tumor 186277-243-T-J2-PDC patient-derived colon adenocarcinoma cell line growth inhibition [GQUAD]
Details: for IC50: curve of first compound; for viability, T/C: stronger effect = lower value
Outline: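 Tumor cells were grown as complex spheroids with HUVEC endothelial cells and mesenchymal stem cells as stroma. G-quadruplex stabilizers were combined with targeted agents over half-log dilutions from near the clinical Cmax, or from 10 microM.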

[1] = second compound 0.0316 µM, first compound 0.0316 µM
[2] = second compound 0.0316 µM, first compound 0.1 µM
[3] = second compound 0.0316 µM, first compound 0.316 µM
[4] = second compound 0.0316 µM, first compound 1 µM
[5] = second compound 0.0316 µM, first compound 3.16 µM
[6] = second compound 0.0316 µM, first compound 10 µM
[7] = second compound 0.1 µM, first compound 0.0316 µM
[8] = second compound 0.1 µM, first compound 0.1 µM
[9] = second compound 0.1 µM, first compound 0.316 µM
[10] = second compound 0.1 µM, first compound 1 µM
[11] = second compound 0.1 µM, first compound 3.16 µM
[12] = second compound 0.1 µM, first compound 10 µM
[13] = second compound 0.316 µM, first compound 0.0316 µM
[14] = second compound 0.316 µM, first compound 0.1 µM
[15] = second compound 0.316 µM, first compound 0.316 µM
[16] = second compound 0.316 µM, first compound 1 µM
[17] = second compound 0.316 µM, first compound 3.16 µM
[18] = second compound 0.316 µM, first compound 10 µM
[19] = second compound 1 µM, first compound 0.0316 µM
[20] = second compound 1 µM, first compound 0.1 µM
[21] = second compound 1 µM, first compound 0.316 µM
[22] = second compound 1 µM, first compound 1 µM
[23] = second compound 1 µM, first compound 3.16 µM
[24] = second compound 1 µM, first compound 10 µM
[25] = second compound 3.16 µM, first compound 0.0316 µM
[26] = second compound 3.16 µM, first compound 0.1 µM
[27] = second compound 3.16 µM, first compound 0.316 µM
[28] = second compound 3.16 µM, first compound 1 µM
[29] = second compound 3.16 µM, first compound 3.16 µM
[30] = second compound 3.16 µM, first compound 10 µM
[31] = second compound 10 µM, first compound 0.0316 µM
[32] = second compound 10 µM, first compound 0.1 µM
[33] = second compound 10 µM, first compound 0.316 µM
[34] = second compound 10 µM, first compound 1 µM
[35] = second compound 10 µM, first compound 3.16 µM
[36] = second compound 10 µM, first compound 10 µM
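Note: spheroids exposed to drugs for 7 days.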
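Throughout, for viability, T/C: 100% = DMSO vehicle control viability.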

Q: What does the source list for COc1cccc2c1C(=O)c1c(O)c3c(c(O)c1C2=O)CC(O)(C(=O)CO)CC3OC1CC(N)C(O)C(C)O1 (stereo unspecified) + Cc1cnc(CNC(=O)c2c(=O)c3ccc(N4CCCN(C)CC4)nc3n3c2sc2ccccc23)cn1?
A: IC50 (second compound 0.0316 µM): 433 nM; IC50 (second compound 0.1 µM): 634 nM; IC50 (second compound 0.316 µM): 350 nM; IC50 (second compound 1 µM): < 31.6 nM; IC50 (second compound 3.16 µM): < 31.6 nM; IC50 (second compound 10 µM): < 31.6 nM; viability, T/C [1]: 113%; viability, T/C [2]: 84.8%; viability, T/C [3]: 65.2%; viability, T/C [4]: 24.3%; viability, T/C [5]: 1.89%; viability, T/C [6]: 0.15%; viability, T/C [7]: 86.5%; viability, T/C [8]: 78.3%; viability, T/C [9]: 77%; viability, T/C [10]: 32.6%; viability, T/C [11]: 1.48%; viability, T/C [12]: 0.63%; viability, T/C [13]: 59.4%; viability, T/C [14]: 56.3%; viability, T/C [15]: 52.3%; viability, T/C [16]: 23.8%; viability, T/C [17]: 0.99%; viability, T/C [18]: 0.15%; viability, T/C [19]: 45.9%; viability, T/C [20]: 37.5%; viability, T/C [21]: 46.5%; viability, T/C [22]: 19.9%; viability, T/C [23]: 0.12%; viability, T/C [24]: 1.33%; viability, T/C [25]: 43.5%; viability, T/C [26]: 54.4%; viability, T/C [27]: 31.4%; viability, T/C [28]: 13.3%; viability, T/C [29]: 2.48%; viability, T/C [30]: 0.22%; viability, T/C [31]: 39.9%; viability, T/C [32]: 41.3%; viability, T/C [33]: 41.8%; viability, T/C [34]: 15.9%; viability, T/C [35]: 0.24%; viability, T/C [36]: 0.26%

Q: Which IC50 (second compound 0.0316 µM) does the source give for Nc1ccn(C2OC(CO)C(O)C2(F)F)c(=O)n1 (stereo unspecified) + Cc1cnc(CNC(=O)c2c(=O)c3ccc(N4CCCN(C)CC4)nc3n3c2sc2ccccc23)cn1 here?
A: Its IC50 is under 31.6 nM.

Q: And the IC50 (second compound 0.1 µM)?
A: The IC50 was under 31.6 nM.

Q: And the IC50 (second compound 0.316 µM)?
A: The IC50 was under 31.6 nM.

Q: What about the IC50 (second compound 1 µM) of the same compound?
A: The IC50 was under 31.6 nM.

Q: What about the IC50 (second compound 3.16 µM) of the same compound?
A: The IC50 was under 31.6 nM.

Q: What about the IC50 (second compound 10 µM) of the same compound?
A: The IC50 was under 31.6 nM.

Q: And the viability, T/C [1]?
A: The viability, T/C was 21.2%.

Q: What about the viability, T/C [2] of the same compound?
A: Its viability, T/C is 13.3%.

Q: And the viability, T/C [3]?
A: The viability, T/C was 12.3%.

Q: And the viability, T/C [4]?
A: Its viability, T/C is 11.9%.

Q: What about the viability, T/C [5] of the same compound?
A: The viability, T/C was 12.2%.

Q: What about the viability, T/C [6] of the same compound?
A: Its viability, T/C is 12.8%.

Q: And the viability, T/C [7]?
A: The viability, T/C was 27.1%.

Q: And the viability, T/C [8]?
A: Its viability, T/C is 17.6%.

Q: And the viability, T/C [9]?
A: The viability, T/C was 15.3%.

Q: What about the viability, T/C [10] of the same compound?
A: Its viability, T/C is 12.9%.

Q: And the viability, T/C [11]?
A: Its viability, T/C is 15.4%.

Q: And the viability, T/C [12]?
A: Its viability, T/C is 15.9%.

Q: And the viability, T/C [13]?
A: Its viability, T/C is 36%.

Q: What about the viability, T/C [14] of the same compound?
A: Its viability, T/C is 28.4%.

Q: And the viability, T/C [15]?
A: Its viability, T/C is 21.5%.

Q: What about the viability, T/C [16] of the same compound?
A: The viability, T/C was 16.8%.

Q: What about the viability, T/C [17] of the same compound?
A: The viability, T/C was 18.6%.

Q: What about the viability, T/C [18] of the same compound?
A: Its viability, T/C is 16%.

Q: What about the viability, T/C [19] of the same compound?
A: Its viability, T/C is 32.6%.

Q: What about the viability, T/C [20] of the same compound?
A: The viability, T/C was 30.2%.

Q: And the viability, T/C [21]?
A: Its viability, T/C is 22.8%.

Q: What about the viability, T/C [22] of the same compound?
A: The viability, T/C was 21.4%.

Q: What about the viability, T/C [23] of the same compound?
A: The viability, T/C was 19.9%.

Q: What about the viability, T/C [24] of the same compound?
A: Its viability, T/C is 17.7%.

Q: What about the viability, T/C [25] of the same compound?
A: The viability, T/C was 33.1%.

Q: What about the viability, T/C [26] of the same compound?
A: Its viability, T/C is 24.8%.

Q: What about the viability, T/C [27] of the same compound?
A: The viability, T/C was 22.6%.

Q: What about the viability, T/C [28] of the same compound?
A: Its viability, T/C is 19.5%.

Q: What about the viability, T/C [29] of the same compound?
A: The viability, T/C was 19.3%.

Q: And the viability, T/C [30]?
A: The viability, T/C was 16.5%.

Q: And the viability, T/C [31]?
A: The viability, T/C was 34.3%.

Q: And the viability, T/C [32]?
A: The viability, T/C was 25.1%.

Q: And the viability, T/C [33]?
A: Its viability, T/C is 25.4%.

Q: What about the viability, T/C [34] of the same compound?
A: The viability, T/C was 18.7%.

Q: And the viability, T/C [35]?
A: The viability, T/C was 21.4%.

Q: What about the viability, T/C [36] of the same compound?
A: The viability, T/C was 19.2%.

Q: Which results are given for O=c1[nH]cc(F)c(=O)[nH]1 + Cc1cnc(CNC(=O)c2c(=O)c3ccc(N4CCCN(C)CC4)nc3n3c2sc2ccccc23)cn1?
A: IC50 (second compound 0.0316 µM): > 10000 nM; IC50 (second compound 0.1 µM): > 10000 nM; IC50 (second compound 0.316 µM): > 10000 nM; IC50 (second compound 1 µM): < 31.6 nM; IC50 (second compound 3.16 µM): < 31.6 nM; IC50 (second compound 10 µM): < 31.6 nM; viability, T/C [1]: 106%; viability, T/C [2]: 110%; viability, T/C [3]: 109%; viability, T/C [4]: 98.5%; viability, T/C [5]: 82.9%; viability, T/C [6]: 57%; viability, T/C [7]: 86.4%; viability, T/C [8]: 93.7%; viability, T/C [9]: 99.9%; viability, T/C [10]: 79%; viability, T/C [11]: 93.3%; viability, T/C [12]: 66.3%; viability, T/C [13]: 76.8%; viability, T/C [14]: 73.3%; viability, T/C [15]: 84.7%; viability, T/C [16]: 57.7%; viability, T/C [17]: 75.1%; viability, T/C [18]: 55.1%; viability, T/C [19]: 47.9%; viability, T/C [20]: 56.3%; viability, T/C [21]: 50.7%; viability, T/C [22]: 56.6%; viability, T/C [23]: 64.3%; viability, T/C [24]: 56.3%; viability, T/C [25]: 49.4%; viability, T/C [26]: 44.8%; viability, T/C [27]: 51.5%; viability, T/C [28]: 50.7%; viability, T/C [29]: 61.7%; viability, T/C [30]: 43.7%; viability, T/C [31]: 40.5%; viability, T/C [32]: 41.7%; viability, T/C [33]: 39.2%; viability, T/C [34]: 53.3%; viability, T/C [35]: 48.7%; viability, T/C [36]: 45.9%
